Results reported in EP1090023B1 (GLAXO GROUP LIMITED, priority 1998, dated 1999).

Columns and labels:
Assay type in all cases: cell-based
[1] = target: adenosine 2a (Homo sapiens, UniProt P29274); experiment: Agonist activity against adenosine receptor subtypes, CHO cells with cAMP response element/SPAP reporter (basal cAMP); details: ratio to EC50 of NECA; transfected CHO cells; effect on basal cAMP via SPAP
Experimental: (§1) Compounds of the invention were tested for in vitro and in vivo biological activity in accordance with the following screens: • (1) Agonist activity against adenosine 2a, adenosine 1 and adenosine 3 receptor subtypes.
(§2) Agonist selectivity of compounds against other human adenosine receptors was determined using Chinese hamster ovary (CHO) cells transfected with the gene for the relevant human adenosine receptor following a method based on that of Castanon and Spevak, 1994 . The CHO cells were also transfected with cyclic AMP response elements promoting the gene for secreted placental alkaline phosphatase (SPAP) (Wood, 1995). The effect of test compounds was determined by their effects on basal levels of cAMP (A2a) or on forskolin-enhanced cAMP (A1 and A3) as reflected by changes in levels of SPAP. EC50 values for compounds were then determined as a ratio to that of the non-selective agonist N-ethyl carboxamide adenosine (NECA).

[2] = target: T1, adenosine 1 (Homo sapiens, UniProt P30542); experiment: Agonist activity against adenosine receptor subtypes, CHO cells with cAMP response element/SPAP reporter (forskolin-enhanced cAMP); details: ratio to EC50 of NECA; transfected CHO cells; effect on forskolin-enhanced cAMP via SPAP
T1 sequence (P30542 1-326): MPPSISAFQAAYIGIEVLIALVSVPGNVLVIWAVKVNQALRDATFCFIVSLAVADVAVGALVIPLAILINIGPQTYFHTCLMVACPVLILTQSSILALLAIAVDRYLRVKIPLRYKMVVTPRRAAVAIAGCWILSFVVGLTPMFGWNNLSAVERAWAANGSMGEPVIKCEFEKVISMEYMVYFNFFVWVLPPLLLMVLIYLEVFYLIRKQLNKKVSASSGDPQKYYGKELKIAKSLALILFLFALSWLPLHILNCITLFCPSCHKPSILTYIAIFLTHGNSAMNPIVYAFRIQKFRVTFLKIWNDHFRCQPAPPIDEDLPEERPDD
Experimental: as §1, §2

[3] = target: T2, adenosine 3 (Homo sapiens, UniProt P0DMS8); experiment: as above; details: ratio to EC50 of NECA; transfected CHO cells; effect on forskolin-enhanced cAMP via SPAP
T2 sequence (P0DMS8 1-318): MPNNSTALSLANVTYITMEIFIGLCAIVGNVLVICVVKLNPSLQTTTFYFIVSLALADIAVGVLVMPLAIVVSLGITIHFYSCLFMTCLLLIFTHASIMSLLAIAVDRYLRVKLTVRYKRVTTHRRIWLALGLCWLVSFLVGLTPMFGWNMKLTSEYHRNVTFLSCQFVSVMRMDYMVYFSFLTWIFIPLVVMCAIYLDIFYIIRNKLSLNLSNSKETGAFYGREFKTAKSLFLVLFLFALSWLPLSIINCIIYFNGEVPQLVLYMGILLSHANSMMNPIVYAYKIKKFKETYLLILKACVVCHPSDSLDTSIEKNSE
Experimental: as §1, §2

Sequence of adenosine 2a (P29274 whole entry): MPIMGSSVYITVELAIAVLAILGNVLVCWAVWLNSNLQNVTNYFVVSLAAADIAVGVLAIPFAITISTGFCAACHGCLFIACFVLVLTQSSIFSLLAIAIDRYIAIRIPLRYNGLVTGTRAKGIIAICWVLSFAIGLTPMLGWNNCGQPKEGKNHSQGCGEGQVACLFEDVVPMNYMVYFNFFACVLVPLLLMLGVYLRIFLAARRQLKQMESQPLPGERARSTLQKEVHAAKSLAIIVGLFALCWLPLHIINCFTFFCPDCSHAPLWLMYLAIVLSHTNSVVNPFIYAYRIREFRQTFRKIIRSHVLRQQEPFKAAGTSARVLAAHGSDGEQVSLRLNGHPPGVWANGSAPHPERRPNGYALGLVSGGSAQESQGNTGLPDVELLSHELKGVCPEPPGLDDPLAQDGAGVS

| SMILES | A2a (EC50 values as a ratio of that of NECA) [1] | A1 (EC50 values as a ratio of that of NECA) [2] | A3 (EC50 values as a ratio of that of NECA) [3] |
| --- | --- | --- | --- |
| CCc1nc([C@H]2O[C@@H](n3cnc4c(NCC(c5ccccc5)c5ccccc5)nc(NCCc5cn(C)cn5)nc43)[C@H](O)[C@@H]2O)no1.O=CO [Example 13, (2R,3R,4S,5R)-2-{6-(2,2-Diphenyl-ethylamino)-2-[2-(1-methyl-1H-imidazol-4-yl)-ethylamino]-purin-9-yl}-5-(5-ethyl-[1,2,4]oxadiazol-3-yl)-tetrahydro-furan-3,4-diol formate] | 1.29 | 6620 | >194 |
| CCc1nc([C@H]2O[C@@H](n3cnc4c(NCC(c5ccccc5)c5ccccc5)nc(NCCN5CCCCC5)nc43)[C@H](O)[C@@H]2O)no1.O=CO [Example 14, (2R,3R,4S,5R)-2-[6-(2,2-Diphenyl-ethylamino)-2-(2-piperidin-1-yl-ethylamino)-purin-9-yl]-5-(5-ethyl-[1,2,4]oxadiazol-3-yl)-tetrahydro-furan-3,4-diol formate] | 12.86 | >=4762 | >190 |
| CCc1nc([C@H]2O[C@@H](n3cnc4c(NCC(c5ccccc5)c5ccccc5)nc(NCCN5CCOCC5)nc43)[C@H](O)[C@@H]2O)no1.O=CO [Example 15, (2R,3R,4S,5R)-2-[6-(2,2-Diphenyl-ethylamino)-2-(2-morpholin-4-yl-ethylamino)-purin-9-yl]-5-(5-ethyl-[1,2,4]oxadiazol-3-yl)-tetrahydro-furan-3,4-diol formate] | 13.62 | >=8649 | >190 |
| CCc1nc([C@H]2O[C@@H](n3cnc4c(NCC(c5ccccc5)c5ccccc5)nc(N[C@H](CO)Cc5ccccc5)nc43)[C@H](O)[C@@H]2O)no1.O=CO [Example 16, (2R,3R,4S,5R)-2-[6-(2,2-Diphenyl-ethylamino)-2-(1S-hydroxymethyl-2-phenyl-ethylamino)-purin-9-yl]-5-(5-ethyl-[1,2,4]oxadiazol-3-yl)-tetrahydro-furan-3,4-diol formate] | 5.75 | 4514.96 | >257 |
| Cc1cnc([C@H]2O[C@@H](n3cnc4c(NCCC5CCCCC5)nc(N[C@H](CO)Cc5ccccc5)nc43)[C@H](O)[C@@H]2O)o1.O=CO [Example 17, (2R,3R,4S,5S)-2-[6-(2-Cyclohexyl-ethylamino)-2-(1S-hydroxymethyl-2-phenyl-ethylamino)-purin-9-yl]-5-(5-methyl-oxazol-2-yl)-tetrahydro-furan-3,4-diol formate] | 5.45 | 538 | >518 |
| Cc1cnc([C@H]2O[C@@H](n3cnc4c(NCC(c5ccccc5)c5ccccc5)nc(N[C@@H]5CCNC5)nc43)[C@H](O)[C@@H]2O)o1.O=CO.O=CO [Example 18, (2R,3R,4S,5S)-2-[6-(2,2-Diphenyl-ethlyamino)-2-(pyrrolidin-3R-ylamino)-purin-9-yl]-5-(5-methyl-oxazol-2-yl)-tetrahydro-furan-3,4-diol diformate] | 18.9 | 5515 | >223 |
| Cc1nnc([C@H]2O[C@@H](n3cnc4c(NCC(c5ccccc5)c5ccccc5)nc(NCCc5cn(C)cn5)nc43)[C@H](O)[C@@H]2O)s1.O=CO.O=CO [Example 19, (2R,3R,4S,5S)-2-{6-(2,2-Diphenyl-ethylamino)-2-[2-(1-methyl-1H-imidazol-4-yl)-ethylamino]-purin-9-yl}-5-(5-methyl-[1,3,4]thiadiazol-2-yl)-tetrahydro-furan-3,4-diol diformate] | 4.05 | 3172 | >293 |
| Cc1nnc([C@H]2O[C@@H](n3cnc4c(NCC(c5ccccc5)c5ccccc5)nc(N[C@H](CO)Cc5ccccc5)nc43)[C@H](O)[C@@H]2O)s1.O=CO [Example 20, (2R,3R,4S,5S)-2-[6-(2,2-Diphenyl-ethylamino)-2-(1S-hydroxymethyl-2-phenyl-ethylamino)-purin-9-yl]-5-(5-methyl-[1,3,4]thiadiazol-2-yl)-tetrahydro-furan-3,4-diol formate] | 17.7 | 2625 | >470 |
| CCc1nnc([C@H]2O[C@@H](n3cnc4c(NCC(c5ccccc5)c5ccccc5)nc(N[C@H](CO)Cc5ccccc5)nc43)[C@H](O)[C@@H]2O)o1.O=CO [Example 21, (2R,3R,4S,5S)-2-[6-(2,2-Diphenyl-ethylamino)-2-(1S-hydroxymethyl-2-phenyl-ethylamino)-purin-9-yl]-5-(5-ethyl-[1,3,4]oxadiazol-2-yl)-tetrahydro-furan-3,4-diol formate] | 3.04 | 568.06 | >173 |
| CCc1nnc([C@H]2O[C@@H](n3cnc4c(NCC(c5ccccc5)c5ccccc5)nc(NCCN5CCCCC5)nc43)[C@H](O)[C@@H]2O)o1.O=CO [Example 22, (2R,3R,4S,5S)-2-[6-(2,2-Diphenyl-ethylamino)-2-(2-piperidin-1-yl-ethylamino)-purin-9-yl]-5-(5-ethyl-[1,3,4]oxadiazol-2-yl)-tetrahydro-furan-3,4-diol formate] | 12.28 | 101.96 | >180 |
| CCc1nnc([C@H]2O[C@@H](n3cnc4c(NCC(c5ccccc5)c5ccccc5)nc(NCCN5CCOCC5)nc43)[C@H](O)[C@@H]2O)o1.O=CO [Example 23, (2R,3R,4S,5S)-2-[6-(2,2-Diphenyl-ethylamino)-2-(2-morpholin-4-yl-ethylamino)-purin-9-yl]-5-(5-ethyl-[1,3,4]oxadiazol-2-yl)-tetrahydro-furan-3,4-diol formate] | 6.16 | 101.96 | >180 |
| CCc1nnc([C@H]2O[C@@H](n3cnc4c(NCC(c5ccccc5)c5ccccc5)nc(NCCc5ccccn5)nc43)[C@H](O)[C@@H]2O)o1.O=CO [Example 24, (2R,3R,4S,5S)-2-[6-(2,2-Diphenyl-ethylamino)-2-(2-pyridin-2-yl-ethylamino)-purin-9-yl]-5-(5-ethyl-[1,3,4]oxadiazol-2-yl)-tetrahydro-furan-3,4-diol formate] | 6.04 | 390.97 | >175 |
| CCc1nnc([C@H]2O[C@@H](n3cnc4c(NCC(c5ccccc5)c5ccccc5)nc(N[C@H]5CC[C@H](N)CC5)nc43)[C@H](O)[C@@H]2O)o1.O=CO [Example 25, (2R,3R,4S,5S)-2-[2-(trans-4-Amino-cyclohexylamino)-6-(2,2-diphenyl-ethylamino)-purin-9-yl]-5-(5-ethyl-[1,3,4]oxadiazol-2-yl)-tetrahydro-furan-3,4-diol formate] | 4.81 | 398.28 | >136 |
| CCc1nnc([C@H]2O[C@@H](n3cnc4c(NCC(c5ccccc5)c5ccccc5)nc(N[C@@H]5CCNC5)nc43)[C@H](O)[C@@H]2O)o1.O=CO [Example 26, (2R,3R,4S,5S)-2-[6-(2,2-Diphenyl-ethylamino)-2-(pyrrolidin-3R-ylamino)-purin-9-yl]-5-(5-ethyl-[1,3,4]oxadiazol-2-yl)-tetrahydro-furan-3,4-diol formate] | 5.57 | 432 | >162 |
| CCc1nnc([C@H]2O[C@@H](n3cnc4c(NCC(c5ccccc5)c5ccccc5)nc(NCCc5ccccn5)nc43)[C@H](O)[C@@H]2O)[nH]1.O=CO [Example 27, (2R,3R,4S,5R)-2-[6-(2,2-Diphenyl-ethylamino)-2-(2-pyridin-2-yl-ethylamino)-purin-9-yl]-5-(5-ethyl-4H-[1,2,4]triazol-3-yl)-tetrahydro-furan-3,4-diol formate] | 21.8 | 135.9 | >183 |
